# Test results: ChEMBL document CHEMBL4330129 (Bioorg Med Chem, 2019)
# Target: Keap1/Nrf2 (Homo sapiens, UniProt Q14145+Q16236)
# Experiment: Binding affinity to FLAG/His-tagged Keap1 (unknown origin)/biotinylated full-length FLAG/His/Tev/Avi-tagged NRF2 (unknown origin) expressed in baculovirus infected Sf9 insect cells measured after 1 hr by TR-FRET assay
# Conditions: not given
# Chain of Keap1/Nrf2 (Q16236 whole entry): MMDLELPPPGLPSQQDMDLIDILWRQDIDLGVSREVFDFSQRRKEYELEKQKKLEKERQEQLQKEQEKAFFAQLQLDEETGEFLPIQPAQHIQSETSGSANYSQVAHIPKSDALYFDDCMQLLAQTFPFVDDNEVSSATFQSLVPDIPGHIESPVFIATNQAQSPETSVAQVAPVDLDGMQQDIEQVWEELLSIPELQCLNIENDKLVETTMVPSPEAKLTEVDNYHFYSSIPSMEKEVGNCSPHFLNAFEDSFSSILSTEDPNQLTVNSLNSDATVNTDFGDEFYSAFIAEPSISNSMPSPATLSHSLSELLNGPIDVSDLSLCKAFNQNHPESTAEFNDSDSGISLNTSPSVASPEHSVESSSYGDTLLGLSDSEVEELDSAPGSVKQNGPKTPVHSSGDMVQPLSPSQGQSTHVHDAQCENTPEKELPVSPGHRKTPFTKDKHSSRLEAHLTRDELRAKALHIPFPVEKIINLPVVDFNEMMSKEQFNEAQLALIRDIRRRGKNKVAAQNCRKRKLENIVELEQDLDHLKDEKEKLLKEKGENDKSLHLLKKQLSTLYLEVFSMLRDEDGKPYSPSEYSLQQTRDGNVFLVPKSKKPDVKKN
# Chain of Keap1/Nrf2 (Q14145 whole entry): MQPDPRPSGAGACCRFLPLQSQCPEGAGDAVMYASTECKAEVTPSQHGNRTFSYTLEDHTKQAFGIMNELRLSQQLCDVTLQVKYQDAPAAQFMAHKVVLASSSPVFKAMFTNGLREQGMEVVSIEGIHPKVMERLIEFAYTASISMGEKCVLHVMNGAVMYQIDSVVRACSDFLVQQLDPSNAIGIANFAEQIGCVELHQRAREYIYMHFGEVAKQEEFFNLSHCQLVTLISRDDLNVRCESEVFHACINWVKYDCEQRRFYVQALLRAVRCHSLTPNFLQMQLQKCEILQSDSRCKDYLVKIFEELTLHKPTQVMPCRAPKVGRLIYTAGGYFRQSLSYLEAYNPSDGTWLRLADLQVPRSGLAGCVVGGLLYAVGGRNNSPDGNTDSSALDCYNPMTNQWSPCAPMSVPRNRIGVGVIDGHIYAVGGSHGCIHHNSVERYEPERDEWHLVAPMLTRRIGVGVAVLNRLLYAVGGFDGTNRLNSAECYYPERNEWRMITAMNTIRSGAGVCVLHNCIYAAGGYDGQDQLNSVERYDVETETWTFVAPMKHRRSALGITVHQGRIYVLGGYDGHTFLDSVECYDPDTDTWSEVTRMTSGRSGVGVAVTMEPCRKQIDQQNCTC
row,IC50 [µM],Structure (SMILES)
1,15.8,O=C(NCCCCN=C=S)Nc1ccc2c(c1)OCCO2
2,31.6,Cc1ccccc1S(=O)(=O)CCCCN=C=S
3,10,CN1CCC(SC(=S)NCCCCNC(=O)Nc2ccc3nccnc3c2)CC1
4,> 100,CC(C)(C)OC(=O)N1CCC(SC(=S)NCCCCNC(=O)NC2CCCC2)CC1
5,> 100,CC(=O)NCCS(=O)(=O)CCCCN=C=S
6,> 100,CCCCNCCSC(=S)NCCCC[S+](C)[O-] (stereo not drawn)
7,2.51,CC(C)(C)OC(=O)N1CCC(SC(=S)NCCCCNC(=O)OCc2ccccc2Cl)CC1
8,12.6,CC(C)(C)OC(=O)N1CCC(SC(=O)NCCCCN=C=S)CC1
9,> 100,CC(C)(C)OC(=O)N1CCC(SC(=O)NCCCCNC(=S)SC2CCN(C(=O)OC(C)(C)C)CC2)CC1
10,> 100,C[S+]([O-])CCCCNC(=S)SCCNC(=O)OC(C)(C)C (stereo not drawn)
11,50.1,O=S(=O)(CCCCN=C=S)c1ccccc1
12,31.6,O=S(=O)(CCCCN=C=S)c1ccccn1
13,39.8,O=S(=O)(CC1(c2ccc(N=C=S)cc2)COC1)c1ccccc1
14,50.1,Cl.O=C(NCCCCNC(=S)SC1CCNCC1)Nc1ccncc1
15,31.6,O=C(NCCCCN=C=S)Nc1ccncc1
16,63.1,Cc1ccccc1[S+]([O-])CCCCN=C=S (stereo not drawn)
17,6.31,O=C(NCCCCN=C=S)Nc1ccc2c(c1)OCO2
18,50.1,CN1CCC(SC(=S)NCCCCNC(=O)CC2CCCC2)CC1
19,> 100,CNC(=O)NCCCCNC(=S)SC1CCN(C(=O)OC(C)(C)C)CC1

row,Structure (SMILES),IC50 [µM]
1,C[S+]([O-])CCCN=C=S (stereo not drawn),> 100
2,CN1CCC(SC(=S)NCCCCNC(=O)Oc2ccccc2)CC1,25.1
3,CC(=O)CCCCN=C=S,> 100

# Test system: not listed separately
# Experiment: Kinetic solubility of the compound at pH 7.4 by CLND method
# Assay type: physicochemical
# Conditions: buffer, read-out: Kinetic_solubility
row,solubility kinetic [µM],Structure (SMILES)
1,131,O=C(NCCCCN=C=S)Nc1ccc2c(c1)OCCO2
2,261,Cc1ccccc1S(=O)(=O)CCCCN=C=S
3,≥ 400,CN1CCC(SC(=S)NCCCCNC(=O)Nc2ccc3nccnc3c2)CC1
4,53,CC(C)(C)OC(=O)N1CCC(SC(=S)NCCCCNC(=O)NC2CCCC2)CC1
5,≥ 422,CC(=O)NCCS(=O)(=O)CCCCN=C=S
6,≥ 420,CCCCNCCSC(=S)NCCCC[S+](C)[O-] (stereo not drawn)
7,2,CC(C)(C)OC(=O)N1CCC(SC(=S)NCCCCNC(=O)OCc2ccccc2Cl)CC1
8,77,CC(C)(C)OC(=O)N1CCC(SC(=O)NCCCCN=C=S)CC1
9,9,CC(C)(C)OC(=O)N1CCC(SC(=O)NCCCCNC(=S)SC2CCN(C(=O)OC(C)(C)C)CC2)CC1
10,≥ 432,C[S+]([O-])CCCCNC(=S)SCCNC(=O)OC(C)(C)C (stereo not drawn)
11,≥ 364,O=S(=O)(CCCCN=C=S)c1ccccc1
12,≥ 331,O=S(=O)(CCCCN=C=S)c1ccccn1
13,9,O=S(=O)(CC1(c2ccc(N=C=S)cc2)COC1)c1ccccc1
14,281,Cl.O=C(NCCCCNC(=S)SC1CCNCC1)Nc1ccncc1
15,400,O=C(NCCCCN=C=S)Nc1ccncc1
16,362,Cc1ccccc1[S+]([O-])CCCCN=C=S (stereo not drawn)
17,42,O=C(NCCCCN=C=S)Nc1ccc2c(c1)OCO2
18,≥ 256,CN1CCC(SC(=S)NCCCCNC(=O)CC2CCCC2)CC1
19,≥ 377,CNC(=O)NCCCCNC(=S)SC1CCN(C(=O)OC(C)(C)C)CC1

row,Structure (SMILES),solubility kinetic [µM]
1,C[S+]([O-])CCCN=C=S (stereo not drawn),331
2,CN1CCC(SC(=S)NCCCCNC(=O)Oc2ccccc2)CC1,≥ 410
3,CC(=O)CCCCN=C=S,206

# Test system: not listed separately
# Experiment: Binding affinity to FLAG/His-tagged Keap1 (unknown origin)/biotinylated full-length FLAG/His/Tev/Avi-tagged Cul3 (unknown origin) expressed in baculovirus infected Sf9 insect cells measured after 1 hr by TR-FRET assay
# Parameters: species or system Homo sapiens
# Conditions: not given
row,Structure (SMILES),pIC50
1,O=C(NCCCCN=C=S)Nc1ccc2c(c1)OCCO2,4.9
2,Cc1ccccc1S(=O)(=O)CCCCN=C=S,5
3,CN1CCC(SC(=S)NCCCCNC(=O)Nc2ccc3nccnc3c2)CC1,5.1
4,C[S+]([O-])CCCN=C=S (stereo not drawn),< 4
5,CC(C)(C)OC(=O)N1CCC(SC(=S)NCCCCNC(=O)NC2CCCC2)CC1,4.4
6,CC(=O)NCCS(=O)(=O)CCCCN=C=S,4.2
7,CCCCNCCSC(=S)NCCCC[S+](C)[O-] (stereo not drawn),< 4
8,CC(C)(C)OC(=O)N1CCC(SC(=S)NCCCCNC(=O)OCc2ccccc2Cl)CC1,4.8
9,CC(C)(C)OC(=O)N1CCC(SC(=O)NCCCCN=C=S)CC1,5.1
10,CC(C)(C)OC(=O)N1CCC(SC(=O)NCCCCNC(=S)SC2CCN(C(=O)OC(C)(C)C)CC2)CC1,< 4
11,C[S+]([O-])CCCCNC(=S)SCCNC(=O)OC(C)(C)C (stereo not drawn),< 4
12,O=S(=O)(CCCCN=C=S)c1ccccc1,4.6
13,O=S(=O)(CCCCN=C=S)c1ccccn1,4.3
14,O=S(=O)(CC1(c2ccc(N=C=S)cc2)COC1)c1ccccc1,4.3
15,Cl.O=C(NCCCCNC(=S)SC1CCNCC1)Nc1ccncc1,4.7
16,O=C(NCCCCN=C=S)Nc1ccncc1,4.7
17,Cc1ccccc1[S+]([O-])CCCCN=C=S (stereo not drawn),4.6
18,CN1CCC(SC(=S)NCCCCNC(=O)Oc2ccccc2)CC1,4.8
19,O=C(NCCCCN=C=S)Nc1ccc2c(c1)OCO2,5
20,CN1CCC(SC(=S)NCCCCNC(=O)CC2CCCC2)CC1,4.5
21,CNC(=O)NCCCCNC(=S)SC1CCN(C(=O)OC(C)(C)C)CC1,< 4
22,CC(=O)CCCCN=C=S,4.1

# Test system: not listed separately
# Experiment: Activation of Keap1/Cul3/Nrf2 in human BEAS2B cells assessed as increase in NQO1 levels measured after 48 hrs
# Assay type: cell-based
# Conditions: BEAS-2B
row,EC50 [µM],Structure (SMILES)
1,1.58,CN(C)c1c(N(C)CCCNC(=S)SC[C@H](NC(=O)CC[C@H](N)C(=O)O)C(=O)NCC(=O)O)c(=O)c1=O
2,0.00871,COC(=O)[C@]12CCC(C)(C)C[C@H]1[C@H]1C(=O)C=C3[C@@]4(C)C=C(C#N)C(=O)C(C)(C)[C@@H]4CC[C@@]3(C)[C@]1(C)CC2 [BARDOXOLONE METHYL]
3,1.58,CC(=O)N[C@@H](CSC(=S)NCCCN(C)c1c(N(C)C)c(=O)c1=O)C(=O)O

# Test system: not listed separately
# Experiment: Lipophilicity, log D of the compound at pH 7.4 by chromatographic method
# Assay type: physicochemical
# Conditions: buffer
row,chromatographic logD,Structure (SMILES)
1,4.04,O=C(NCCCCN=C=S)Nc1ccc2c(c1)OCCO2
2,5.52,Cc1ccccc1S(=O)(=O)CCCCN=C=S
3,1.52,CN1CCC(SC(=S)NCCCCNC(=O)Nc2ccc3nccnc3c2)CC1
4,6.1,CC(C)(C)OC(=O)N1CCC(SC(=S)NCCCCNC(=O)NC2CCCC2)CC1
5,1.8,CC(=O)NCCS(=O)(=O)CCCCN=C=S
6,4.34,CCCCNCCSC(=S)NCCCC[S+](C)[O-] (stereo not drawn)
7,7.72,CC(C)(C)OC(=O)N1CCC(SC(=S)NCCCCNC(=O)OCc2ccccc2Cl)CC1
8,6.72,CC(C)(C)OC(=O)N1CCC(SC(=O)NCCCCN=C=S)CC1
9,7.89,CC(C)(C)OC(=O)N1CCC(SC(=O)NCCCCNC(=S)SC2CCN(C(=O)OC(C)(C)C)CC2)CC1
10,3.12,C[S+]([O-])CCCCNC(=S)SCCNC(=O)OC(C)(C)C (stereo not drawn)
11,4.92,O=S(=O)(CCCCN=C=S)c1ccccc1
12,3.85,O=S(=O)(CCCCN=C=S)c1ccccn1
13,4.21,O=S(=O)(CC1(c2ccc(N=C=S)cc2)COC1)c1ccccc1
14,0.49,Cl.O=C(NCCCCNC(=S)SC1CCNCC1)Nc1ccncc1
15,2.6,O=C(NCCCCN=C=S)Nc1ccncc1
16,4.69,Cc1ccccc1[S+]([O-])CCCCN=C=S (stereo not drawn)
17,4.25,O=C(NCCCCN=C=S)Nc1ccc2c(c1)OCO2
18,3,CN1CCC(SC(=S)NCCCCNC(=O)CC2CCCC2)CC1
19,4.58,CNC(=O)NCCCCNC(=S)SC1CCN(C(=O)OC(C)(C)C)CC1

row,Structure (SMILES),chromatographic logD
1,C[S+]([O-])CCCN=C=S (stereo not drawn),0.85
2,CN1CCC(SC(=S)NCCCCNC(=O)Oc2ccccc2)CC1,0.9
3,CC(=O)CCCCN=C=S,4.21

# Species: Homo sapiens
# Experiment: Activation of Keap1/Cul3/Nrf2 in NHBE cells assessed as induction of HO-1 gene expression at 10 uM after 24 hrs by RT-PCR analysis relative to SFN
# Assay type: cell-based
# Conditions: not given
row,Structure (SMILES),fold change (FC)
1,O=C(NCCCCN=C=S)Nc1ccc2c(c1)OCCO2,0.65
2,Cc1ccccc1S(=O)(=O)CCCCN=C=S,0.67
3,CN1CCC(SC(=S)NCCCCNC(=O)Nc2ccc3nccnc3c2)CC1,102
4,C[S+]([O-])CCCN=C=S (stereo not drawn),0.47
5,CC(C)(C)OC(=O)N1CCC(SC(=S)NCCCCNC(=O)NC2CCCC2)CC1,27.3
6,CC(=O)NCCS(=O)(=O)CCCCN=C=S,0.37
7,CCCCNCCSC(=S)NCCCC[S+](C)[O-] (stereo not drawn),0.08
8,CC(C)(C)OC(=O)N1CCC(SC(=S)NCCCCNC(=O)OCc2ccccc2Cl)CC1,40.3
9,CC(C)(C)OC(=O)N1CCC(SC(=O)NCCCCN=C=S)CC1,4.01
10,CC(C)(C)OC(=O)N1CCC(SC(=O)NCCCCNC(=S)SC2CCN(C(=O)OC(C)(C)C)CC2)CC1,4.08
11,C[S+]([O-])CCCCNC(=S)SCCNC(=O)OC(C)(C)C (stereo not drawn),0.58
12,O=S(=O)(CCCCN=C=S)c1ccccc1,4.31
13,O=S(=O)(CCCCN=C=S)c1ccccn1,2.24
14,O=S(=O)(CC1(c2ccc(N=C=S)cc2)COC1)c1ccccc1,0.23
15,Cl.O=C(NCCCCNC(=S)SC1CCNCC1)Nc1ccncc1,25.8
16,O=C(NCCCCN=C=S)Nc1ccncc1,15.3
17,Cc1ccccc1[S+]([O-])CCCCN=C=S (stereo not drawn),1.3
18,CN1CCC(SC(=S)NCCCCNC(=O)Oc2ccccc2)CC1,5.52
19,O=C(NCCCCN=C=S)Nc1ccc2c(c1)OCO2,10.5
20,CN1CCC(SC(=S)NCCCCNC(=O)CC2CCCC2)CC1,31.3
21,CNC(=O)NCCCCNC(=S)SC1CCN(C(=O)OC(C)(C)C)CC1,0.59
22,CC(=O)CCCCN=C=S,0.9
